From patent US7288573B2, “Method of repelling insects” (priority 2001, dated 2007)
Where “and” joins values, the source holds several entries; their conditions need not be identical. Equal values may be shown once. Entries after “also recorded” stand apart in the source; their conditions may differ.

Assays:
Aedes albopictus = assay: One-minute biting counts on treated forearm (Example 7); assay type: in vivo; conditions: 20% formulations; post-treatment time intervals
Protocol: This experiment was performed to evaluate the comparative repellency of 5% and 20% 2-undecanone in ethanol, 20% 2-tridecanone in isopropanol and Off!™ 14.25% DEET Insect Repellent aerosol against Aedes albopictus (Asian tiger mosquitoes) and Culex quinquefasciatus (southern house mosquitoes).
Three to four-day-old laboratory-reared female Ae. albopictus and Cx. quinquefasciatus were transferred by aspiration into eight cages measuring 10 inches high×10 inches wide×13 inches deep at a targeted stocking rate of 100 and 200, respectively. Four cages contained Ae. albopictus and four contained Cx. quinquefasciatus. A greater number of Cx. quinquefasciatus was used to compensate for lower biting activity anticipated for this species. The actual number of females per cage was lower than the target-stocking rate because of the high number of males that were inadvertently introduced into the cages. Each cage contained a screened back wall, clear Plexiglas top, stockinette entry sleeve and solid aluminum floor and sidewalls. The mosquitoes were fed water and sugar water prior to and between tests. The tests were conducted over four days, Aug. 7-10, 2001, with four men participating as testers. All testers washed both arms with a non-fragrance soap, rinsed and swabbed with 25% ethanol prior to applying treatments. Treatments were applied to the forearm in a region extending from the wrist to a point measured at 12″ back from the tip of the index finger on both arms. The 20% 2-tridecanone was not applied as uniformly as the other repellents because an insufficient quantity was available. Latex gloves were worn over the hands and replaced before each biting count. The control consisted of a soap wash, rinse and 25% ethanol swab and was conducted by the same person throughout the study. One-minute biting counts were recorded at 0, 1, 2, 4 & 6 hours post-treatment time intervals. All treatments were randomly assigned to each tester, two treatments per tester. Cage placement was also randomized at the beginning of each day of testing. Testers were rotated each day so that by the end of the study they had occupied each cage location. Each repellent was tested two times by three testers so that mean biting counts were based on six observations. A Hobo datalogger was used to monitor temperature and humidity throughout the study.
A balanced incomplete block design following American Society for Testing and Materials standards E 939-94 was employed. Data were normalized by square root transformation and submitted to analysis of variance and mean separation procedures via SS PC. Microsoft Excel 2000 pivot tables and charting functions were used to plot mean biting counts and standard errors by species and time interval for each treatment and control. Mean biting counts were transformed to percent protection or repellency by the following formula: Control−Treatment/Control×100.

Culex spp. = assay: Mosquito repellency of 2-undecanone and 2-tridecanone, treated arm in cage (Example 6); assay type: in vivo; conditions: for No. landings: single replicates; for observed repellent / residual activity (words): observed up to 24 hours post-treatment
Text: Cages. The same two mosquitoes cages described in Example 5 were used for this example. The cages were constructed using wood framing and fine mesh wire screen. The dimensions of each cage were 59 cm high×55 cm wide by 59 cm deep. A hinged access door was installed at the front of each chamber for insertion of the water-filled containers filled with mosquito pupae. Also present at the front of each chamber was a 9 cm diameter plastic tube (i.d.) for insertion of the arm of the investigator. The arm insertion tube was sealed with a rubber stopper when not in use.
Mosquitoes and Mosquito Rearing. Mosquitoes (Culex spp.) were obtained (as pupae and larvae) from Carolina Biological Supply Co., Burlington, N.C., USA in two successive shipments, so as to provide a continuing long term supply of fresh insects. Following their arrival, the mosquitoes were divided into approximately equal numbers in multiple water-filled containers and placed in the two cages described above. The larval and pupal cultures were fed with insect rearing compound. In addition, the water was changed regularly by filtration to minimize contamination and prevent overcrowding. Continuous culturing made it possible to increase the mosquito numbers to more than 100 insects per cage.
Test Compounds and Testing Schedule. Testing was done with two compounds, 2-undecanone, and 2-tridecanone, for repellent activity by treating one arm of the investigator with approximately 1 ml of the test solution. Following several minutes for solvent evaporation, the treated arm was inserted through the insertion tube for 5 minutes. The other arm was treated with isoprbpanol (control) or a different concentration of the compound, and inserted into the insertion tube of the adjacent chamber. Next, the behavior of the mosquitoes in response to the presence of the investigator's arms was noted. Mosquito behavior was recorded as 1) landing or attempting to land on the investigator's arm, or coming to rest on the wire screen immediately adjacent to the investigator's arm or hand, versus 2) dispersal away from the treated arm towards the opposite ends of the cage. The approximate number of mosquitoes present at the beginning of the observations was noted. For treatments with 2-undecanone, observations were made initially to confirm 100% repellent activity of the compound immediately after treatment but observations were not recorded. Recording of efficacy was delayed until 6 hours after treatment, and then repeated at 12 and 24 hours post-treatment. For treatment with 2-tridecanone, the observations commenced immediately after solvent drying; then, the observations were repeated (without re-treatment of the investigator's hand and arm) after 6 hours, 12 hours and 24 hours. Treatments were alternated between the different cages. […]
2-tridecanone was obtained as a solid. To prepare this compound for testing, it was subjected to gentle heating in a 37° C. water bath to liquefy it, and aliquots of the stock were diluted volume: volume with isopropanol to 50% concentration and 20% concentration. Sufficient pure compound was retained for direct application (undiluted).
Tests were done at concentrations of 100%, 50%, and 20% for each of the two compounds, as well as 20% DEET, and the isopropanol control.
Table 3 presents the efficacy found at the different time intervals for each of the compounds at the three different concentrations and for DEET. Efficacy was calculated according to the formula: [(no. landings/no. present in control)−(no. landings/no. present in experinental) divided by (no. landings/no. present in control)]×100.

[1] = 20% concentration, 0 hours after treatment
[2] = 20% concentration, 6 hours after treatment
[3] = 20% concentration, 12 hours after treatment
[4] = 20% concentration, 24 hours after treatment
[5] = 50% concentration, 0 hours after treatment
[6] = 50% concentration, 6 hours after treatment
[7] = 50% concentration, 12 hours after treatment
[8] = 50% concentration, 24 hours after treatment
[9] = 100% concentration, 0 hours after treatment
[10] = 100% concentration, 6 hours after treatment
[11] = 100% concentration, 12 hours after treatment
[12] = 100% concentration, 24 hours after treatment

## CCCCCCCCCCCC(C)=O [2-tridecanone]
Aedes albopictus
  repellency: low repellency
Culex spp.; 20% concentration, 0 hours
  Percent Efficacy Post-Treatment: 1.5%^
Culex spp.; [1]
  No. landings, Mean: 4.0
  Percent = [(No. landings/No. present)] × 100: 14.4%
  No. landings: 4 and 3 and 5
Culex spp.; 20% concentration, 6 hours
  Percent Efficacy Post-Treatment: 0%
Culex spp.; [2]
  No. landings, Mean: 4.7
  Percent = [(No. landings/No. present)] × 100: 14.0%
  No. landings: 3 and 4 and 7
Culex spp.; 20% concentration, 12 hours
  Percent Efficacy Post-Treatment: 22.2%
Culex spp.; [3]
  No. landings, Mean: 4.7
  Percent = [(No. landings/No. present)] × 100: 13.0%
  No. landings: 3 and 5 and 6
Culex spp.; 20% concentration, 24 hours
  Percent Efficacy Post-Treatment: 0%
Culex spp.; [4]
  No. landings, Mean: 5.7
  Percent = [(No. landings/No. present)] × 100: 14.9%
  No. landings: 5 and 6 (2×)
Culex spp.; 20% concentration
  observed repellent / residual activity (words): repellant activity was not observed
Culex spp.; 20% concentration, listed as 2-Tridecanone
  observed repellent / residual activity (words): Comments: No residual repellent activity was observed.
Culex spp.; 50% concentration, 0 hours
  Percent Efficacy Post-Treatment: 95.2%
Culex spp.; [5]
  No. landings, Mean: 0.7
  Percent = [(No. landings/No. present)] × 100: 0.7%
  No. landings: 0 and 1 (2×)
Culex spp.; 50% concentration, 0 hours after treatment, listed as 2-Tridecanone
  Percent = [(No. landings/No. present)] × 100: 2.4%
Culex spp.; 50% concentration, 6 hours
  Percent Efficacy Post-Treatment: 67.7%
Culex spp.; [6]
  No. landings, Mean: 1.3
  Percent = [(No. landings/No. present)] × 100: 4.3%
  No. landings: 3 and 0 and 1
Culex spp.; 50% concentration, 6 hours after treatment, listed as 2-Tridecanone
  Percent = [(No. landings/No. present)] × 100: 4.3%
Culex spp.; 50% concentration, 12 hours
  Percent Efficacy Post-Treatment: 0%
Culex spp.; [7]
  No. landings, Mean: 5.7
  Percent = [(No. landings/No. present)] × 100: 19.7%
  No. landings: 7 and 4 and 6
Culex spp.; 50% concentration, 24 hours
  Percent Efficacy Post-Treatment: 0%
Culex spp.; [8]
  No. landings, Mean: 5.0
  Percent = [(No. landings/No. present)] × 100: 18.7%
  No. landings: 7 and 4 (2×)
Culex spp.; 50% concentration
  observed repellent / residual activity (words): activity greatly diminished or was absent after 12 and 24 hours.
Culex spp.; 100% concentration, 0 hours
  Percent Efficacy Post-Treatment: 87.7%
Culex spp.; [9]
  No. landings, Mean: 1.3
  Percent = [(No. landings/No. present)] × 100: 1.8%
  No. landings: 0 and 1 and 3
Culex spp.; 100% concentration, 0 hours after treatment, listed as 2-Tridecanone
  Percent = [(No. landings/No. present)] × 100: 1.8%
Culex spp.; 100% concentration, 6 hours
  Percent Efficacy Post-Treatment: 18.1%
Culex spp.; [10]
  No. landings, Mean: 9.7
  Percent = [(No. landings/No. present)] × 100: 10.9%
  No. landings: 9 and 10 (2×)
Culex spp.; 100% concentration, 12 hours
  Percent Efficacy Post-Treatment: 41.9%
Culex spp.; [11]
  No. landings, Mean: 10.3
  Percent = [(No. landings/No. present)] × 100: 9.7%
  No. landings: 16 and 7 and 8
Culex spp.; 100% concentration, 24 hours
  Percent Efficacy Post-Treatment: 0%
Culex spp.; [12]
  No. landings, Mean: 15.0
  Percent = [(No. landings/No. present)] × 100: 13.3%
  No. landings: 17 and 15 and 13
Culex spp.; 100% concentration
  observed repellent / residual activity (words): Comments: The compound was highly repellent. A huge cloud of mosquitoes retreated
Culex spp.; 100%, 50% and 20% concentrations, 0 to 24 hours
  overall repellent activity, comparison of the two compounds: less effective as a repellent against mosquitoes than 2-undecanone

## CCN(CC)C(=O)c1cccc(C)c1 [DEET, N,N-diethyl-meta-toluamide, reference compound]
Culex spp.; 20% concentration, 0 hours
  Percent Efficacy Post-Treatment: 91.1%
Culex spp.; [1]
  No. landings, Mean: 1.3
  Percent = [(No. landings/No. present)] × 100: 1.3%
  No. landings: 2 (2×) and 0
Culex spp.; 20% concentration, 6 hours
  Percent Efficacy Post-Treatment: 63.9%
Culex spp.; [2]
  No. landings, Mean: 5.7
  Percent = [(No. landings/No. present)] × 100: 4.8%
  No. landings: 10 and 4 and 3
Culex spp.; 20% concentration, 12 hours
  Percent Efficacy Post-Treatment: 31.7%
Culex spp.; [3]
  No. landings, Mean: 15.0
  Percent = [(No. landings/No. present)] × 100: 11.4%
  No. landings: 12 and 15 and 18
Culex spp.; 20% concentration, 24 hours
  Percent Efficacy Post-Treatment: 16.8%
Culex spp.; [4]
  No. landings, Mean: 13.0
  Percent = [(No. landings/No. present)] × 100: 10.9%
  No. landings: 14 (2×) and 11
Culex spp.; 20% concentration
  observed repellent / residual activity (words): strong immediate and residual activity for up to 6 hours, weak activity at 12 hours and none thereafter; also recorded: treatment, but no residual activity was observed at 12 or 24 hours post-treatment
